Data published in ChEMBL document CHEMBL1667742, “Angiotensin II receptor type 1 (AT1) selective nonpeptidic antagonists--a perspective” (Bioorg Med Chem, 2010).
Where a chain is given by its changes, count along the chain named. One block for each molecule: values may come before it.

Legend:
[1] = Antagonist activity at angiotensin AT1 receptor in rat adrenal cortical membranes; type: functional, cell membranes
[2] = biological target: T1, Type-1 angiotensin II receptor (Homo sapiens, UniProt P30556); assay: Antagonist activity at angiotensin AT1 receptor; type: functional; details: for Kb: read-out: pA2 (converted)
T1 sequence (P30556 whole entry): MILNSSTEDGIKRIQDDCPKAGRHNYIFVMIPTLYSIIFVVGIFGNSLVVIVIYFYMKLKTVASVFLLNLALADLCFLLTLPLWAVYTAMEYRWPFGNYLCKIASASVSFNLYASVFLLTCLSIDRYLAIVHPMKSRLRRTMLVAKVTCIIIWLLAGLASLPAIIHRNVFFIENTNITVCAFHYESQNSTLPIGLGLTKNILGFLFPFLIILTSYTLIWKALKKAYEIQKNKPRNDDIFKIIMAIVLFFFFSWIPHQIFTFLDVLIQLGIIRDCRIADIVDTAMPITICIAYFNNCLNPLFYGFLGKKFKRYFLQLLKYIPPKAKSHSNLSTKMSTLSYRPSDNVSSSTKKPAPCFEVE

[3] = biological target: T1, Type-1 angiotensin II receptor; assay: Binding affinity to angiotensin AT1 receptor
[4] = biological target: T2, Type-1 angiotensin II receptor (Bos taurus) (UniProt P25104); assay: Binding affinity to angiotensin AT1 receptor in bovine adrenal cortex membranes; type: cell membranes; details: Membrane
T2 sequence (whole entry): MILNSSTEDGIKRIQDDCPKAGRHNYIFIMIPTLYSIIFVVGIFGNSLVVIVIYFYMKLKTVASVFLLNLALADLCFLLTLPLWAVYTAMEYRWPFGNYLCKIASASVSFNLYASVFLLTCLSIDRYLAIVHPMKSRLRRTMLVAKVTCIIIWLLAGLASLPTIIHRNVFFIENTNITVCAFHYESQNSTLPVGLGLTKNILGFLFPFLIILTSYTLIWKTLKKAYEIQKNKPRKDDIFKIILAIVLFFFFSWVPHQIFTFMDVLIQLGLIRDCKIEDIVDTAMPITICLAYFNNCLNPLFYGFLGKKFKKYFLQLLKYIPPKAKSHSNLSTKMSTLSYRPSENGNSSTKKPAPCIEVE

[5] = Binding affinity to angiotensin AT1 receptor in rat adrenal cortical membranes; type: cell membranes
[6] = Antagonist activity at angiotensin AT1 receptor in rat aorta; type: functional, tissue-based
[7] = biological target: T3, Type-2 angiotensin II receptor (Homo sapiens, UniProt P50052); assay: Binding affinity to angiotensin AT2 receptor
T3 sequence (P50052 whole entry): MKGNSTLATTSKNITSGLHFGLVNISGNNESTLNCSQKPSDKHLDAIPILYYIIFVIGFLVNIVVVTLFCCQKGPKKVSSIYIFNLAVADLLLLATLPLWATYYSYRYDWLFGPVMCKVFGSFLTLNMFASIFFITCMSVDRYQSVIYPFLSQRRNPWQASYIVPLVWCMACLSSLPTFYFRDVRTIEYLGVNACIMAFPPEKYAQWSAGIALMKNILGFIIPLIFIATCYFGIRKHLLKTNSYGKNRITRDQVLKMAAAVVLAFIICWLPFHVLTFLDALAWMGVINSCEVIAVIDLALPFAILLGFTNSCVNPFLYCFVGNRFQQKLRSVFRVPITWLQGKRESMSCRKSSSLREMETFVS

[8] = biological target: T4, Type-1 angiotensin II receptor (Oryctolagus cuniculus, UniProt P34976); assay: Antagonist activity at angiotensin AT1 receptor in rabbit aorta assessed as reduction of angiotensin 2-induced contractile response; type: functional, tissue-based; details: read-out: pA2 (converted)
T4 sequence (P34976 whole entry): T1 sequence (P30556 whole entry) with I2M, V49A, I254V, I270V, R272H, R311K, T349S, A353V

[9] = Binding affinity to angiotensin AT1 receptor in rat liver membranes; type: cell membranes, Membrane
Rattus norvegicus [10] = assay: Antihypertensive activity in po dosed conscious rat; type: functional; details: read-out: ID50 (the source's name)
Rattus norvegicus [11] = assay: Ratio of compound ED50 to losartan ED50 for po dosed renal hypertensive rat model; type: functional
[12] = biological target: T5, Type-1 angiotensin II receptor (Oryctolagus cuniculus) (UniProt P34976); assay: (§1) Antagonist activity at angiotensin AT1 receptor in rabbit aorta; type: functional, tissue-based
T5 sequence (whole entry): T1 sequence (P30556 whole entry) with I2M, V49A, I254V, I270V, R272H, R311K, T349S, A353V

[13] = Selectivity ratio of IC50 for angiotensin AT1 receptor to IC50 for angiotensin AT2 receptor
[14] = biological target: T4, Type-1 angiotensin II receptor; assay: as §1; type: functional, tissue-based; details: read-out: pA2 (converted)
[15] = Displacement of radiolabeled angiotensin2 from angiotensin AT1 receptor in rat adrenal cortex membranes; type: cell membranes, Membrane
[16] = Antagonist activity at angiotensin AT1 receptor in rat liver membranes; type: functional, cell membranes, Membrane

IC50 [1]: 0.6 nM
SMILES: CCCCc1nc2cccnc2n1-c1ccc(CCO/C(O)=C2\C(C(C)C)=NC(C)=C(C(=O)Nc3cccnc3)C2c2ccccc2Cl)cc1 (stereo not given)

Kb [2]: 0.0126 nM
SMILES: CCCCc1nc2ccc([C@]3(C)C[C@H]4CCCN4O3)cc2c(=O)n1Cc1ccc(-c2ccccc2-c2nn[nH]n2)cc1

Ki [3]: 1 nM
SMILES: CCCCC1=NC(Cl)=C(C(=O)O)C(C)N1Cc1ccc(-c2ccccc2-c2nnn[nH]2)cc1 (stereo not given)

IC50 [3]: 16 nM | Kb [2]: 3.16 nM
SMILES: CCCCc1nc(Cc2ccc(-c3ccccc3-c3nnn[nH]3)cc2)n(CCCC)n1

IC50 [3]: 6.5 nM | Kb [2]: 2.09 nM
SMILES: CCCCc1cn(CCCC)c(=O)n1Cc1ccc(-c2ccccc2-c2nnn[nH]2)nc1 [SC-52892]

IC50 [1]: 0.65 nM | Activity [4]: 9.3 nM
SMILES: CCCc1cc(=O)n(CC(=O)N(C)C)c(=O)n1Cc1ccc(-c2ccccc2-c2nn[nH]n2)cc1

Ki [5]: 2.6 nM
SMILES: CCCCc1c(Cc2ccc(-c3ccccc3-c3nn[nH]n3)cc2)[n+]([O-])c2ccccc2[n+]1[O-]
Kb [6]: 2.1 nM

IC50 [7]: 50 nM
SMILES: CCCCc1nc(Cl)c2n1C(c1ccc(-c3ccccc3-c3nnn[nH]3)cc1)CC=C2C(=O)O (stereo not given)

Kb [8]: 1.51 nM | pKi [9]: 8.7
SMILES: COc1c(OCc2ccc(-c3ccccc3-c3nn[nH]n3)cc2)cc(C)nc1C

Activity [4]: 4.2 nM
SMILES: CCOc1nc2cccc(C(=O)O)c2n1Cc1ccc(-c2ccccc2-c2noc(=O)[nH]2)cc1 [AZILSARTAN]
ED50 (Rattus norvegicus [10]): 0.04 mg/kg

IC50 [2]: 0.4 nM
SMILES: CCc1nn(Cc2ccc(-c3ccccc3-c3nn[nH]n3)cc2)/c(=N/C(=O)C2=C(C(=O)[O-])CCC2)s1.[K+]
Ratio ED50 (Rattus norvegicus [11]): 10

IC50 [3]: 4.9 nM | Kb [2]: 0.501 nM
SMILES: CCCCc1cn([C@H]2[C@H](C)CCC[C@@H]2C)c(=O)n1Cc1ccc(-c2ccccc2-c2nnn[nH]2)nc1 [SC-55634]

IC50 [3]: 5.6 nM | Kb [2]: 2 nM
SMILES: CCCCc1nc(CCCC)n(Cc2ccc(-c3ccccc3-c3nnn[nH]3)cc2)n1

Ki [5]: 8.5 nM | Kb [12]: 0.08 nM
SMILES: CCCSC1=NS(=O)(=O)c2ccc(C(=O)O)cc2N1Cc1ccc(-c2ccccc2-c2nn[nH]n2)cc1

IC50 [6]: 2.7 nM
SMILES: CCCCC(=O)N(Cc1ccc(-c2ccccc2-c2nnn[nH]2)cc1)[C@H](C(=O)O)C(C)C

IC50 [3]: 4.7 nM | Ratio IC50 [13]: 0.74 | IC50 [7]: 3.5 nM
SMILES: CCCCc1nc2ccn(CC(=O)N3CCCCC3)c(=O)c2n1Cc1ccc(-c2ccccc2S(=O)(=O)NC(=O)OCc2ccccc2)cc1F

Kb [14]: 0.0912 nM
SMILES: CCCc1nc2c(n1Cc1ccc(-c3ccccc3-c3nnn[nH]3)cc1)C(=O)CCCC2 [PRATOSARTAN]

IC50 [15]: 3.1 nM
SMILES: CCCc1nc(C(F)(F)C(F)(F)F)c(C(=O)O)n1Cc1ccc(-c2ccccc2-c2nn[nH]n2)cc1

Ki [3]: 24 nM
SMILES: CCCc1nc(C)n2[nH]c(=O)nc2c1Cc1ccc(-c2ccccc2-c2nnn[nH]2)cc1

Activity [4]: 2.5 nM
SMILES: CCOc1nc2cccc(C(=O)O)c2n1Cc1ccc(-c2ccccc2-c2nsc(O)n2)cc1

IC50 [15]: 6 nM
SMILES: CCCc1nc(CC)c(C(=O)O)n1Cc1ccc(-c2ccccc2-c2nn[nH]n2)cc1
Ratio ED50 (Rattus norvegicus [11]): 20

Kb [14]: 0.0501 nM
SMILES: CCc1nc2c(C)cc(C)nc2n1Cc1ccc(-c2ccccc2S(=O)(=O)NC(=O)c2ccccc2)cc1

IC50 [3]: 12 nM | Kb [2]: 2.24 nM
SMILES: CCCCc1cn(CCCC)c(=O)n1Cc1ccc(-c2ccccc2-c2nnn[nH]2)cc1 [SC-51895]

Kb [14]: 5.01 nM
SMILES: CCc1cc(OCc2ccc(-c3ccccc3-c3nnn[nH]3)cc2)c2ccccc2n1

IC50 [16]: 350 nM
SMILES: Cc1nc(Sc2ccc(-c3ccccc3-c3nn[nH]n3)cc2)c2ccccc2n1

Ratio IC50 [13]: 3000
SMILES: CCc1nc2ccc(N(Cc3ccccc3)C(=O)c3cccs3)cc2c(=O)n1Cc1ccc(-c2ccccc2-c2nn[nH]n2)cc1
